Values of other authors, collected in patent US9433643B2, “Microbicidal composition comprising hydrogen peroxide and aminocarboxylic acids” (Truox, Inc., priority 2013, dated 2016).

Experiments:
[1] = reported
[2] = at 25° C., reported

isoelectric point (pI) [2]	Structure (SMILES)	also measured
	O=C(O)CN(CCN(CC(=O)O)CC(=O)O)CC(=O)O [EDTA, ethylenediaminetetraacetic acid]	pK1 ([1]; carboxylic acid groups): 2.00; pK2 ([1]; carboxylic acid groups): 2.65; pK3 ([1]; carboxylic acid groups): 6.18; pK4 ([1]; carboxylic acid groups): 10.30
	CC(=O)OO [Peroxyacetic acid]	pKa [1]: 4.76
3.08	N[C@@H](CCC(=O)O)C(=O)O [glutamic acid]	
2.98	N[C@@H](CC(=O)O)C(=O)O [aspartic acid]	
6.11	C[C@H](N)C(=O)O [alanine]	
6.06	NCC(=O)O [glycine, aminoethanoic acid]	

Structure (SMILES)	isoelectric point (pI) [2]	also measured
N=C(N)NCCC[C@H](N)C(=O)O [arginine]	10.76	
